Values belong to the molecule of their own block, whether it stands above or below them.
Tests used:
Format in all cases: physicochemical
[1] = Camptothecin adsorption to bentonite (supernatant concentration); details: camptothecin 0.25 mg/mL in 1 N HCl
Method: The concentration of camptothecin (Tokyo Chemical Industry, TCI) was made at 0.25 mg/mL using a 100% 1 N HCl solvent and the drug and bentonite reacted with each other at various ratios shown in Table 6 below, and then the drug amount adsorbed to bentonite was indirectly measured by measuring the drug concentration of the supernatant.

[2] = Carbamazepine drug release test according to pH; details: regardless of pH
Excerpt: In addition, a pattern released at a constant rate at all pHs was shown, and since the release rate of carbamazepine is higher at high pH, it may be inferred that the drug may be easily released from the lower digestive tract.

[3] = Ciprofloxacin adsorption to bentonite (pH and concentration dependence)
[4] = Ciprofloxacin release test using a dialysis membrane (FaSSGF, FaSSIF, FaSSCoF); details: complex weight ratio 1:5
Excerpt: The release pattern according to the pH of the complex was confirmed through a release test using a dialysis membrane.

SMILES: CC[C@@]1(O)C(=O)OCc2c1cc1n(c2=O)Cc2cc3ccccc3nc2-1 [Camptothecin, (S)-4-ethyl-4-hydroxy-1H-pyrano-[3′,4′: 6,7]indolizinol[1,2-b]quinoline-3,14 (4H, 12H)-dione]
- Supernatant concentration [1]: 49.7 ± 0.3 µg/mL

- time within which most of the drug was released [2]: ≤ 2 h
SMILES: NC(=O)N1c2ccccc2C=Cc2ccccc21 [Carbamazepine, 5H-dibenzo[b,f]azepine-5-carboxamide]

- amount of drug adsorption per bentonite mass ([3]; bentonite 0.5 mg/mL, ciprofloxacin 50-500 μg/mL, pH 1): ≤ 300 mg/g
- adsorption amount of ciprofloxacin according to pH ([3]; ciprofloxacin 0.5 mg/mL, bentonite 5 mg/mL, pH 1 to 10, decreased above pH 7): high adsorption
- drug adsorption rate ([3]; weight ratio of ciprofloxacin and bentonite 1:5): ~100%
- release pattern in FaSSGF, FaSSIF, FaSSCoF [4]: rapidly released under FaSSGF
SMILES: O=C(O)c1cn(C2CC2)c2cc(N3CCNCC3)c(F)cc2c1=O [ciprofloxacin, 1-cyclopropyl-6-fluoro-1,4-dihydro-4-oxo-7-(1-piperazinyl)-quinoline-3-carboxylic acid]

— patent US12605449B2, “Drug-clay mineral complex containing phospholipid and oral administration composition including same” (Korea Institute of Geoscience and Mineral Resources, priority 2020, dated 2026)
